{"source": "patent US20140248361A1", "about": "“HERBAL EXTRACT COMPOSITION AND A PROCESS THEREOF” (PRASAN SOLUTIONS (INDIA) PVT LTD, priority 2012, published 2014)", "key": {"[1]": {"experiment": "Oil stability index (Rancimat) of almond oil", "details": "for Induction Time: in h", "protocol": "(§1) The oil stability index is determined using the Metrohm's Rancimat (Metrohm 743 Rancimat).\n4.0 g of almond oil is weighed into the reaction vessel. The reaction vessel filled with oil is placed in a heating block. The temperature of the block is maintained at 100° C., 120° C. and 140° C., respectively. The oil is heated at the said temperatures, followed by passing air at a flow rate of 20 L/h. […] These compounds are conveyed by the air flow into measurement vessel containing distilled water where conductivity is being checked continuously by sensor.\nThe above experiment is repeated by adding 200 ppm of BHA (sample-B), 200 ppm of BHT (sample-B1), 500 ppm of alpha tocopherol (sample-B2) and PRESOL at 200 ppm, 500 ppm and 1000 ppm, respectively to almond oil. From the above experiment, oxidative stability index of untreated oil (control) and treated oil is calculated and the below table illustrates the induction time and the obtained oxidative stability."}, "[2]": {"experiment": "Oil stability index (Rancimat) of apricot oil", "details": "for Induction Time at 200 ppm: in h", "protocol": "As used herein, ‘Oil Stability Index (OSI)’ is an American Oil Chemists Society (AOCS) approved method that determines the relative resistance of fat and oil samples to oxidation, which is defined by the following equation—\nas §1\n4.0 g of apricot oil is weighed into the reaction vessel. The reaction vessel filled with oil is placed in a heating block. The temperature of the block is maintained at 100° C., 120° C. and 140° C., respectively. The oil is heated at the said temperatures, followed by passing air at a flow rate of 20 L/h. Flowing of air through the oil produces peroxides during primary oxidation and organic acids having low molecular weight, aldehydes and ketones with typical rancid odor during the secondary oxidation phase. These compounds are conveyed by the air flow into measurement vessel containing distilled water where conductivity is being checked continuously by sensor.\nThe above experiment is repeated by adding 200 ppm of BHA (sample-B), 200 ppm of BHT (sample-B1), 500 ppm of alpha tocopherol (sample-B2) and PRESOL at 200 ppm, 500 ppm and 1000 ppm, respectively to apricot oil."}, "[3]": {"experiment": "Oil stability index (Rancimat) of fish oil", "details": "200 ppm; for Induction Time: in h", "method": "4.0 g of fish oil is weighed into the reaction vessel. […] The temperature of the block is maintained at 60° C., 70° C. and 80° C., respectively."}, "[4]": {"experiment": "Peroxide value of fish oil at 10° C.", "method": "The shelf life is calculated using Rancimat shelf life calculator. The shelf life of oil is studied by carrying out chemical analysis, which include studying peroxide value (represents extent of primary oxidation), Para-anisidine value (represents extent of secondary oxidation) and totox value (reflects total oxidation of oil). […] […] The untreated oil is the control sample without any antioxidant."}}}
{"molecule": "Cc1cc(C(C)(C)C)c(O)c(C(C)(C)C)c1", "note": "[Sample B1, butylated hydroxyl toluene]", "values": [{"measurement": "Induction Time", "setting": "[1]; 100° C., 200 ppm", "result": 24.98}, {"measurement": "Induction Time", "setting": "[1]; 120° C., 200 ppm", "result": 5.89}, {"measurement": "Induction Time", "setting": "[1]; 140° C., 200 ppm", "result": 1.48}, {"measurement": "Induction Time at 200 ppm", "setting": "[2]; 100° C., 200 ppm", "result": 26.96}, {"measurement": "Induction Time at 200 ppm", "setting": "[2]; 120° C., 200 ppm", "result": 5.93}, {"measurement": "Induction Time at 200 ppm", "setting": "[2]; 140° C., 200 ppm", "result": 1.49}]}
{"molecule": "Cc1c(C)c2c(c(C)c1O)CC[C@@](C)(CCC[C@H](C)CCC[C@H](C)CCCC(C)C)O2", "note": "[Sample B2, alpha tocopherol]", "values": [{"measurement": "Oxidative Stability Index (OSI)", "setting": "[3]; 60° C.", "result": 2.81}, {"measurement": "Induction Time", "setting": "[3]; 60° C.", "result": 27.68}, {"measurement": "Oxidative Stability Index (OSI)", "setting": "[3]; 70° C.", "result": 2.76}, {"measurement": "Induction Time", "setting": "[3]; 70° C.", "result": 13.74}, {"measurement": "Oxidative Stability Index (OSI)", "setting": "[3]; 80° C.", "result": 2.76}, {"measurement": "Induction Time", "setting": "[3]; 80° C.", "result": 6.78}, {"measurement": "Oxidative Stability Index (OSI)", "setting": "[1]; 100° C., 500 ppm", "result": 1.11}, {"measurement": "Induction Time", "setting": "[1]; 100° C., 500 ppm", "result": 24.51}, {"measurement": "Oxidative Stability Index (OSI)", "setting": "[1]; 120° C., 500 ppm", "result": 1.13}, {"measurement": "Induction Time", "setting": "[1]; 120° C., 500 ppm", "result": 5.73}, {"measurement": "Oxidative Stability Index (OSI)", "setting": "[1]; 140° C., 500 ppm", "result": 1.04}, {"measurement": "Induction Time", "setting": "[1]; 140° C., 500 ppm", "result": 1.43}, {"measurement": "days after which peroxide value crosses the threshold limit of 8 meq/kg", "setting": "[4]; 200 ppm", "result": 21, "unit": "days"}, {"measurement": "Peroxide value", "setting": "[4]; day 0, 200 ppm", "result": 1.74}, {"measurement": "Peroxide value", "setting": "[4]; day 3, 200 ppm", "result": 2.13}, {"measurement": "Peroxide value", "setting": "[4]; day 6, 200 ppm", "result": 3.33}, {"measurement": "Peroxide value", "setting": "[4]; day 9, 200 ppm", "result": 4.71}, {"measurement": "Peroxide value", "setting": "[4]; day 12, 200 ppm", "result": 5.41}, {"measurement": "Peroxide value", "setting": "[4]; day 15, 200 ppm", "result": 6.82}, {"measurement": "Peroxide value", "setting": "[4]; day 18, 200 ppm", "result": 7.84}, {"measurement": "Peroxide value", "setting": "[4]; day 21, 200 ppm", "result": 9.02}, {"measurement": "Peroxide value", "setting": "[4]; day 24, 200 ppm", "result": 10.32}, {"measurement": "Peroxide value", "setting": "[4]; day 27, 200 ppm", "result": 12.02}, {"measurement": "Peroxide value", "setting": "[4]; day 30, 200 ppm", "result": 13.01}, {"measurement": "Peroxide value", "setting": "[4]; day 33, 200 ppm", "result": 15.44}, {"measurement": "Peroxide value", "setting": "[4]; day 36, 200 ppm", "result": 17.16}, {"measurement": "Peroxide value", "setting": "[4]; day 39, 200 ppm", "result": 18.94}, {"measurement": "Peroxide value", "setting": "[4]; day 42, 200 ppm", "result": 20.86}, {"measurement": "Peroxide value", "setting": "[4]; day 45, 200 ppm", "result": 25.09}, {"measurement": "Peroxide value", "setting": "[4]; day 48, 200 ppm", "result": 28.71}, {"measurement": "Peroxide value", "setting": "[4]; day 51, 200 ppm", "result": 33.89}, {"measurement": "Peroxide value", "setting": "[4]; day 54, 200 ppm", "result": 39.01}, {"measurement": "Peroxide value", "setting": "[4]; day 57, 200 ppm", "result": 44.14}, {"measurement": "Peroxide value", "setting": "[4]; day 60, 200 ppm", "result": 49.22}, {"measurement": "Peroxide value", "setting": "[4]; day 63, 200 ppm", "result": 50.06}, {"measurement": "Peroxide value", "setting": "[4]; day 66, 200 ppm", "result": 51.22}, {"measurement": "Peroxide value", "setting": "[4]; day 69, 200 ppm", "result": 50.85}, {"measurement": "Peroxide value", "setting": "[4]; day 72, 200 ppm", "result": 50.13}, {"measurement": "Peroxide value", "setting": "[4]; day 75, 200 ppm", "result": 49.72}, {"measurement": "Oxidative Stability Index (OSI)", "setting": "[2]; 100° C., 500 ppm", "result": 0.82}, {"measurement": "Induction Time at 200 ppm", "setting": "[2]; 100° C., 500 ppm", "result": 22.06}, {"measurement": "Oxidative Stability Index (OSI)", "setting": "[2]; 120° C., 500 ppm", "result": 0.86}, {"measurement": "Induction Time at 200 ppm", "setting": "[2]; 120° C., 500 ppm", "result": 5.06}, {"measurement": "Oxidative Stability Index (OSI)", "setting": "[2]; 140° C., 500 ppm", "result": 0.89}, {"measurement": "Induction Time at 200 ppm", "setting": "[2]; 140° C., 500 ppm", "result": 1.32}]}
